Assay results as given in ChEMBL document CHEMBL4219173, “2,4-Diamino-8-quinazoline carboxamides as novel, potent inhibitors of the NAD hydrolyzing enzyme CD38: Exploration of the 2-position structure-activity relationships” (Bioorg Med Chem, 2018).
Converted amounts (≈) assume the structure as drawn.

Tests used:
[1] = target: T1, ADP-ribosyl cyclase/cyclic ADP-ribose hydrolase 1 (Homo sapiens, UniProt P28907); assay: Inhibition of recombinant human CD38 extracellular domain expressed in Pichia pastoris using NAD as substrate pretreated for 30 mins followed by substrate addition measured after 15 to 45 mins
T1 sequence (P28907 whole entry): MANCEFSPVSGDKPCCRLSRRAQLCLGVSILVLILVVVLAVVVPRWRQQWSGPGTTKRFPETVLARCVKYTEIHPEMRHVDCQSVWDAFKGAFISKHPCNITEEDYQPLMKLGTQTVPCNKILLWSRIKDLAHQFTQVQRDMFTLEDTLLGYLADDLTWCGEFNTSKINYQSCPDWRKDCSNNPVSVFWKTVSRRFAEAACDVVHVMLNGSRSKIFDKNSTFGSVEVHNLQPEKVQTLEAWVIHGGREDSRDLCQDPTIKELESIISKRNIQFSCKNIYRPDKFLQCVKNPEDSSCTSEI

[2] = Lipophilicity, log D of the compound by chromatographic method; assay type: physicochemical
[3] = Aqueous solubility of the compound in FaSSIF; assay type: physicochemical
Cytochrome P450 3A4 = Cytochrome P450 3A4 (Homo sapiens, UniProt P08684); assay: Inhibition of CYP3A4 (unknown origin); assay type: ADME
[4] = target: Voltage-gated inwardly rectifying potassium channel KCNH2 (Homo sapiens, UniProt Q12809); assay: Inhibition of human ERG
[5] = Clearance in mouse at 2 mg/kg, iv; assay type: ADME, organism-based; settings: in vivo
[6] = Permeability of the compound by PAMPA; assay type: ADME; settings: read-out: permeability
[7] = Oral bioavailability in mouse at 30 mg/kg; assay type: ADME, organism-based; settings: in vivo
[8] = Half life in mouse at 2 mg/kg, iv; assay type: ADME, organism-based; settings: in vivo
Mus musculus = assay: Dose normalized AUC in mouse at 30 mg/kg, po; assay type: ADME, organism-based; settings: in vivo
[9] = Volume of distribution at steady state in mouse at 2 mg/kg, iv; assay type: ADME, organism-based; settings: in vivo, read-out: Vdss

Chain of Voltage-gated inwardly rectifying potassium channel KCNH2 (Q12809 whole entry): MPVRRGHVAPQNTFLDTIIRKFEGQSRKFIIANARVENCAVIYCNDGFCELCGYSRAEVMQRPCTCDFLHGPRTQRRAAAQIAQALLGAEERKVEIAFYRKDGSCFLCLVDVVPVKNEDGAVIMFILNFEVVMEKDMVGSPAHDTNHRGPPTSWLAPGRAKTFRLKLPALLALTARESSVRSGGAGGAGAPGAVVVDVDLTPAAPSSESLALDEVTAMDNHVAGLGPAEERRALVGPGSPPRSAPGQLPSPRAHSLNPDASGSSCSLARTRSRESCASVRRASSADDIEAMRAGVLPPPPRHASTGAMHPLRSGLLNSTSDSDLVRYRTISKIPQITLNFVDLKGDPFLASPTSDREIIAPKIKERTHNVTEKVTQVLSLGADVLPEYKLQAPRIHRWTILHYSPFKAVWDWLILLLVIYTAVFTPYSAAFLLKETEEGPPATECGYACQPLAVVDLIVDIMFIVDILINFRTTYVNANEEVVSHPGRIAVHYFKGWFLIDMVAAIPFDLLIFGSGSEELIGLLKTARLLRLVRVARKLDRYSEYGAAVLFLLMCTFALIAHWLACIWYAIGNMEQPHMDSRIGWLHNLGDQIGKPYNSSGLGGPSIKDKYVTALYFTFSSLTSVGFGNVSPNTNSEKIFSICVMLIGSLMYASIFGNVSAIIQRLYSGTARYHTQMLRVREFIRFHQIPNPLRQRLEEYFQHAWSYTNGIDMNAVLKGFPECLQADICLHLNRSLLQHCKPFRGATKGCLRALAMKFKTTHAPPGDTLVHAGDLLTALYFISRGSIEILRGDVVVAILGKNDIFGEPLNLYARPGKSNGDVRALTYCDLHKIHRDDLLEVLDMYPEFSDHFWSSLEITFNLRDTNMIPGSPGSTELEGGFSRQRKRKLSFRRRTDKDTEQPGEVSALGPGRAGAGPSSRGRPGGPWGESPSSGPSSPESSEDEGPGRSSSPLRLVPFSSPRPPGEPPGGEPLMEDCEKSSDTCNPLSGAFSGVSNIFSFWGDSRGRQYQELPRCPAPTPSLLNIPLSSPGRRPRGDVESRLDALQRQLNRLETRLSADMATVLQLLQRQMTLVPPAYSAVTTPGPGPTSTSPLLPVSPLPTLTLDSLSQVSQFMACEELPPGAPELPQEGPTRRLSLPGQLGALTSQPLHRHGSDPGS
Chain of Cytochrome P450 3A4 (P08684 whole entry): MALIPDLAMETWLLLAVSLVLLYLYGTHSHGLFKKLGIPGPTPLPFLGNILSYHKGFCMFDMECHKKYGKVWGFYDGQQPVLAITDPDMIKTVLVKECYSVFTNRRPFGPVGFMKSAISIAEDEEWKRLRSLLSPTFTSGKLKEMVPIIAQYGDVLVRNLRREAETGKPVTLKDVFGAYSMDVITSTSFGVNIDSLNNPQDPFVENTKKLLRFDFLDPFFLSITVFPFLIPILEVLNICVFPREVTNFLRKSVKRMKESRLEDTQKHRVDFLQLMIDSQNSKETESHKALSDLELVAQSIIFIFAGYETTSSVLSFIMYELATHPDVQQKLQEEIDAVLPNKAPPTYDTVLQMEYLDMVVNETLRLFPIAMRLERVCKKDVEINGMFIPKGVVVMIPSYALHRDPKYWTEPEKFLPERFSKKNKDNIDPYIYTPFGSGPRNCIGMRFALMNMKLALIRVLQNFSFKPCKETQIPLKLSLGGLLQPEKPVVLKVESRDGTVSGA

| SMILES | IC50 [1] | further results |
| --- | --- | --- |
| C[C@@H]1c2[nH]nc(N)c2CN1C1=NC(NCc2c(F)cccc2C(F)(F)F)c2cccc(C(N)=O)c2N1 (some centres not stated) | 45 nM |  |
| CC(=O)c1n[nH]c2c1CN(C1=NC(NCc3c(F)cccc3C(F)(F)F)c3cccc(C(N)=O)c3N1)C2 (configuration not stated) | 140 nM |  |
| Cc1cc(NCc2c(F)cccc2C(F)(F)F)c2cccc(C(N)=O)c2n1 |  | chromatographic logD [2]: 5.1 |
| C[C@H]1c2[nH]nc(N)c2CN1C1=NC(NCc2c(F)cccc2C(F)(F)F)c2cccc(C(N)=O)c2N1 (some centres not stated) | 310 nM |  |
| NC(=O)c1cccc2c1NC(N1Cc3[nH]nc(C(F)(F)F)c3C1)=NC2NCc1c(F)cccc1C(F)(F)F (configuration not stated) | 4100 nM |  |
| C[C@@H](O)c1n[nH]c2c1CN(C1=NC(NCc3c(F)cccc3C(F)(F)F)c3cccc(C(N)=O)c3N1)C2 (some centres not stated) | 230 nM | solubility [3]: 11 µg/mL (≈ 21.3 µM) |
| C[C@H]1c2n[nH]cc2CN1C1=NC(NCc2c(F)cccc2C(F)(F)F)c2cccc(C(N)=O)c2N1 (some centres not stated) | 410 nM |  |
| Cc1n[nH]c2c1CN(C1=NC(NCc3c(F)cccc3C(F)(F)F)c3cccc(C(N)=O)c3N1)[C@H]2C (some centres not stated) | 170 nM |  |
| NC(=O)c1cccc2c1NC(N1Cc3c(N)n[nH]c3C13CCCC3)=NC2NCc1c(F)cccc1C(F)(F)F (configuration not stated) | 17 nM |  |
| C[C@H](O)c1n[nH]c2c1CN(C1=NC(NCc3c(F)cccc3C(F)(F)F)c3cccc(C(N)=O)c3N1)C2 (some centres not stated) | 110 nM | solubility [3]: 12 µg/mL (≈ 23.2 µM) |
| NC(=O)c1cccc2c1NC(N1CCCc3cn[nH]c3C1)=NC2NCc1c(F)cccc1C(F)(F)F (configuration not stated) | 19000 nM |  |
| Cc1n[nH]c2c1CN(C1=NC(NCc3c(F)cccc3C(F)(F)F)c3cccc(C(N)=O)c3N1)[C@@H]2C (some centres not stated) | 21 nM |  |
| CC1(C)c2[nH]nc(N)c2CN1C1=NC(NCc2c(F)cccc2C(F)(F)F)c2cccc(C(N)=O)c2N1 (configuration not stated) | 20 nM |  |
| C[C@H]1c2cn[nH]c2CN1C1=NC(NCc2c(F)cccc2C(F)(F)F)c2cccc(C(N)=O)c2N1 (some centres not stated) | 2500 nM |  |
| Cn1cc2c(n1)CN(C1Nc3c(C(N)=O)cccc3C(NCc3c(F)cccc3C(F)(F)F)N1)C2 (configuration not stated) | 160 nM |  |
| C[C@@H]1c2cn[nH]c2CN1C1=NC(NCc2c(F)cccc2C(F)(F)F)c2cccc(C(N)=O)c2N1 (some centres not stated) | 330 nM |  |
| NC(=O)c1cccc2c1NC(N1Cc3c(N)n[nH]c3C13CCC3)=NC2NCc1c(F)cccc1C(F)(F)F (configuration not stated) | 7.8 nM |  |
| Cc1n[nH]c2c1CN(C1=NC(NCc3c(F)cccc3C(F)(F)F)c3cccc(C(N)=O)c3N1)C2 (configuration not stated) | 42 nM | IC50 (Cytochrome P450 3A4): 631 nM; IC50 [4]: 12600 nM |
| NC(=O)c1cccc2c1NC(N1Cc3[nH]nc(N)c3C1)=NC2NCc1c(F)cccc1C(F)(F)F (configuration not stated) | 110 nM |  |
| CC[C@H]1c2[nH]ncc2CN1C1=NC(NCc2c(F)cccc2C(F)(F)F)c2cccc(C(N)=O)c2N1 (some centres not stated) | 370 nM |  |
| NC(=O)c1cccc2c1NC(N1Cc3[nH][nH]c(=O)c3C1)=NC2NCc1c(F)cccc1C(F)(F)F (configuration not stated) | 1600 nM |  |
| CCc1n[nH]c2c1CN(C1=NC(NCc3c(F)cccc3C(F)(F)F)c3cccc(C(N)=O)c3N1)C2 (configuration not stated) | 83 nM |  |
| C[C@@H]1c2n[nH]cc2CN1C1=NC(NCc2c(F)cccc2C(F)(F)F)c2cccc(C(N)=O)c2N1 (some centres not stated) | 51 nM | solubility [3]: 34 µg/mL (≈ 69.7 µM); IC50 (Cytochrome P450 3A4): 158 nM; clearance [5]: 37 mL/min/kg; Papp [6]: 14.7 ×10⁻⁶ cm/s; bioavailability [7]: 69%; half-life [8]: 1.4 h; AUC/dose (Mus musculus): 327 ng·h/mL/(mg/kg); Vd [9]: 2.7 L/kg; IC50 [4]: 3160 nM |
| CC[C@@H]1c2[nH]ncc2CN1C1=NC(NCc2c(F)cccc2C(F)(F)F)c2cccc(C(N)=O)c2N1 (some centres not stated) | 71 nM |  |
| Cn1ncc2c1CN(C1=NC(NCc3c(F)cccc3C(F)(F)F)c3cccc(C(N)=O)c3N1)C2 (configuration not stated) | 82 nM | solubility [3]: 2 µg/mL (≈ 4.1 µM) |
| NC(=O)c1cccc2c1NC(N1Cc3c(N)n[nH]c3C13CC3)=NC2NCc1c(F)cccc1C(F)(F)F (configuration not stated) | 4 nM | chromatographic logD [2]: 3.9 |

More lines, main results first:

| IC50 [1] | SMILES | further results |
| --- | --- | --- |
| 4200 nM | NC(=O)c1c(C(F)(F)F)ccc2c(NCc3c(F)cccc3C(F)(F)F)nc(NCc3ncco3)nc12 |  |
| 620 nM | Cc1n[nH]cc1CNc1nc(NCc2c(F)cccc2C(F)(F)F)c2cccc(C(N)=O)c2n1 |  |
| 5500 nM | NC(=O)c1cccc2c(NCc3c(F)cccc3C(F)(F)F)nc(NCc3ccon3)nc12 |  |
| 3400 nM | NC(=O)c1cccc2c(NCc3c(F)cccc3C(F)(F)F)nc(NCc3cnco3)nc12 |  |
| 1900 nM | CN(Cc1ccn[nH]1)c1nc(NCc2c(F)cccc2C(F)(F)F)c2cccc(C(N)=O)c2n1 |  |
| 450 nM | NC(=O)c1cccc2c(NCc3c(F)cccc3C(F)(F)F)nc(NCc3cn[nH]c3)nc12 |  |
| 2300 nM | NC(=O)c1cccc2c(NCc3c(F)cccc3C(F)(F)F)nc(NCc3ccn[nH]3)nc12 |  |
| 92 nM | NC(=O)c1cccc2c(NCc3c(F)cccc3C(F)(F)F)nc(N3Cc4cn[nH]c4C3)nc12 | solubility [3]: 6 µg/mL (≈ 12.7 µM) |
| 4300 nM | NC(=O)c1cccc2c(NCc3c(F)cccc3C(F)(F)F)nc(NCc3nc[nH]n3)nc12 |  |
| 6800 nM | NC(=O)c1cccc2c(NCc3c(F)cccc3C(F)(F)F)nc(NCc3ncc[nH]3)nc12 |  |
| 1900 nM | NC(=O)c1cccc2c(NCc3c(F)cccc3C(F)(F)F)nc(N3CCc4cn[nH]c4C3)nc12 |  |
| 8000 nM | NC(=O)c1cccc2c(NCc3c(F)cccc3C(F)(F)F)nc(NCc3nnn[nH]3)nc12 |  |
| 72 nM | NC(=O)c1cccc2c(NCc3c(F)cccc3C(F)(F)F)cc(NCc3cn[nH]c3)nc12 |  |
| 630 nM | NC(=O)c1cccc2c(NCc3c(F)cccc3C(F)(F)F)nc(N3CCc4[nH]ncc4C3)nc12 |  |
| 1600 nM | NC(=O)c1cccc2c(NCc3c(F)cccc3C(F)(F)F)nc(NCc3c[nH]cn3)nc12 |  |
